Experimental findings from patent US10670605B2, “Cysteine reactive probes and uses thereof” (The Scripps Research Institute, priority 2015, dated 2020) are described below.

Assay in all cases: Competitive isoTOP-ABPP in situ (fragment-treated cells)
Common to all, as to assay type: cell-based
Holding throughout (settings): 200 μM, insitu, 231

Experiment [1] addresses cysteines in MDA-MB-231 and Ramos cells (Homo sapiens, UniProt Q9NUY8).
Experiment [2] has as its target T1, cysteines in MDA-MB-231 and Ramos cells (Homo sapiens, UniProt P10599).
T1 sequence (P10599 1-105): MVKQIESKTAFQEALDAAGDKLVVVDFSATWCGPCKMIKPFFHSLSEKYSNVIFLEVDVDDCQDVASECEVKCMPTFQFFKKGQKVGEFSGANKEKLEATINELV

The target of experiment [3] is T2, cysteines in MDA-MB-231 and Ramos cells (Homo sapiens, UniProt Q13428).
T2 sequence (Q13428 1-1488): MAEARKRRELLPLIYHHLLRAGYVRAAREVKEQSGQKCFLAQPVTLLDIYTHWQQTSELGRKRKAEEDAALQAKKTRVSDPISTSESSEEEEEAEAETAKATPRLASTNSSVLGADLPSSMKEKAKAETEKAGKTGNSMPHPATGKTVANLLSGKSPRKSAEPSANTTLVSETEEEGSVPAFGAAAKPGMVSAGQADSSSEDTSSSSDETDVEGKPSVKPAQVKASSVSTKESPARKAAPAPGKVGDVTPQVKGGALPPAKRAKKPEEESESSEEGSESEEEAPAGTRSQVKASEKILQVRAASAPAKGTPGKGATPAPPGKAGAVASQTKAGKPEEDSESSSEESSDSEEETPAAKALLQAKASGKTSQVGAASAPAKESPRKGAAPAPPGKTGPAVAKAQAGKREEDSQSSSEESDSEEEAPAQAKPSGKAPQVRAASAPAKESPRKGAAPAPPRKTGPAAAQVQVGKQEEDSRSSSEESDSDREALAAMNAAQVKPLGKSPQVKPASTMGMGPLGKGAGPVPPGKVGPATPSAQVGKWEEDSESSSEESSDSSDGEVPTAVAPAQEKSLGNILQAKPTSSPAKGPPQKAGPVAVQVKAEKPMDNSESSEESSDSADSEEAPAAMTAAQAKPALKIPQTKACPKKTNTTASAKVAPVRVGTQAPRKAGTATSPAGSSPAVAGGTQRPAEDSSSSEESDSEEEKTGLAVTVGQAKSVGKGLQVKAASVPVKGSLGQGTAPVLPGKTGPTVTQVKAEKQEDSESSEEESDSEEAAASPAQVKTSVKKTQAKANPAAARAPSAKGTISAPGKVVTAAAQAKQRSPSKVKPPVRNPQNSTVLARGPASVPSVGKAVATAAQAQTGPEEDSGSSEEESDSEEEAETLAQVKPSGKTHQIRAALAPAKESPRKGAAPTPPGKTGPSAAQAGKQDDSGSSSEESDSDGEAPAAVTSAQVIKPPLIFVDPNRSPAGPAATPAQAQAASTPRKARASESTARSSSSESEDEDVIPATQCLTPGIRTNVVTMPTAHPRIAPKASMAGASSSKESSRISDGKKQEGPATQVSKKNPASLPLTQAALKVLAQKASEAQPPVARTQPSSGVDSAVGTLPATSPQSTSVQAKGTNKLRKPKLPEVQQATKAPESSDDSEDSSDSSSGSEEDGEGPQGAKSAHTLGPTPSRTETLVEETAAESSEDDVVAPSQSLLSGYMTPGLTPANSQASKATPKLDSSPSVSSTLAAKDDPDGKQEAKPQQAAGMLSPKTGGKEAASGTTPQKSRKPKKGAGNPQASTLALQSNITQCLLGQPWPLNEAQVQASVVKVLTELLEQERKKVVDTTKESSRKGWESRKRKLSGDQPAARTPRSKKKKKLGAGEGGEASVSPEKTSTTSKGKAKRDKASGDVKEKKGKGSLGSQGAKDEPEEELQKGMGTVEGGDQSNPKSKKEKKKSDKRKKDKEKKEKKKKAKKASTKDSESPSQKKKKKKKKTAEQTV

Experiment [4] has as its target T3, cysteines in MDA-MB-231 and Ramos cells (Homo sapiens, UniProt P35611).
T3 sequence (P35611 1-737): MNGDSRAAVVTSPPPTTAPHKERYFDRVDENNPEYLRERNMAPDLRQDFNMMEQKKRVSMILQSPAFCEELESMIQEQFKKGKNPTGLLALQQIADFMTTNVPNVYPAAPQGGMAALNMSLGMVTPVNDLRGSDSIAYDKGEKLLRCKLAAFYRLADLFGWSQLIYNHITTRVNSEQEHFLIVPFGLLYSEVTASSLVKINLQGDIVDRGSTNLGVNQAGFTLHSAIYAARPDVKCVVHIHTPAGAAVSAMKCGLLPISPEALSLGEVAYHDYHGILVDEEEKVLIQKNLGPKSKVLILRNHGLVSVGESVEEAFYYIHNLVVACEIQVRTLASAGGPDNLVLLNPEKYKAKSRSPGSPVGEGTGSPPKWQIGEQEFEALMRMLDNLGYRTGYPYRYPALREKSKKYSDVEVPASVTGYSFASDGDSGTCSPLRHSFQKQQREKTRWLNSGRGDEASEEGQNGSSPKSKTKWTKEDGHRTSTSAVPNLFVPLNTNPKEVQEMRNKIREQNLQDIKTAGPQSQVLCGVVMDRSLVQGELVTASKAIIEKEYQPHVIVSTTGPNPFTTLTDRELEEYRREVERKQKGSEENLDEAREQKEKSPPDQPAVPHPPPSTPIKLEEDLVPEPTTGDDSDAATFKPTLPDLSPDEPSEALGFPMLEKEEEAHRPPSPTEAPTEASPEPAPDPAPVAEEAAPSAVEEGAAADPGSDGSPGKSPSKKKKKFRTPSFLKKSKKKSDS

Experiment [5] addresses cysteines in MDA-MB-231 and Ramos cells (Homo sapiens, UniProt P12268).
The target of experiment [6] is cysteines in MDA-MB-231 and Ramos cells (Homo sapiens, UniProt Q8TAQ2).
Chain of cysteines in MDA-MB-231 and Ramos cells (Homo sapiens, UniProt Q8TAQ2) (Q8TAQ2 whole entry): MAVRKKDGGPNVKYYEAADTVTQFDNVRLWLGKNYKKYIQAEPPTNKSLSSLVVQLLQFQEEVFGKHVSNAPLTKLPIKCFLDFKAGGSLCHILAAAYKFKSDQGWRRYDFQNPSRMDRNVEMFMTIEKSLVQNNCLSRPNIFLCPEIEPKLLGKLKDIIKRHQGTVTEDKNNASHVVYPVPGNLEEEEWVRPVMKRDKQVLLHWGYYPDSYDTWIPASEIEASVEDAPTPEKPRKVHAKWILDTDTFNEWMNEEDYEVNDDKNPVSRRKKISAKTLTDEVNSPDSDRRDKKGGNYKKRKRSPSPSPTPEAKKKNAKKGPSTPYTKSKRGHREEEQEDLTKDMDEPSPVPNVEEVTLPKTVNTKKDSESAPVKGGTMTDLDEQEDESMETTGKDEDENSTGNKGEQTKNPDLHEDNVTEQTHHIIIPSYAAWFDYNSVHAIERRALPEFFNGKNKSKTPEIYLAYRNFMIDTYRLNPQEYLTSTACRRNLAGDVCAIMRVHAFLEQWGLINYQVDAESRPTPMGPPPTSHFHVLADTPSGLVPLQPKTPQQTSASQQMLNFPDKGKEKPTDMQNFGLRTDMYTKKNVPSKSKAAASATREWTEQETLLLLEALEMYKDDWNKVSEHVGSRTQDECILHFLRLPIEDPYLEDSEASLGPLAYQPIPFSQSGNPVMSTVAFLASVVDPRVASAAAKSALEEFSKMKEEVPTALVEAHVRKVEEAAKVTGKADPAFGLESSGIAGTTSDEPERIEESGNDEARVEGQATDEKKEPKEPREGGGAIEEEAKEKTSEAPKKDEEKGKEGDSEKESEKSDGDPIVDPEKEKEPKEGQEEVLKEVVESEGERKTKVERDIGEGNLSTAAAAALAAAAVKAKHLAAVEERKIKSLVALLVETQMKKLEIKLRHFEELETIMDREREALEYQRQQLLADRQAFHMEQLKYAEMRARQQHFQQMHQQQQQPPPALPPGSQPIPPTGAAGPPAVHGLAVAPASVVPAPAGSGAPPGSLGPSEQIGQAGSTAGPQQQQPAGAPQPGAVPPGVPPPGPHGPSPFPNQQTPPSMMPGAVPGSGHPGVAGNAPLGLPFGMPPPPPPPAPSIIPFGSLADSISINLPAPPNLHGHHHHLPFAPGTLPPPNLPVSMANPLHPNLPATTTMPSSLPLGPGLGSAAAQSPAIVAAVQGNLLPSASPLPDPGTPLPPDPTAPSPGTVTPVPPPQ

Chain of cysteines in MDA-MB-231 and Ramos cells (Homo sapiens, UniProt Q9NUY8) (Q9NUY8 whole entry): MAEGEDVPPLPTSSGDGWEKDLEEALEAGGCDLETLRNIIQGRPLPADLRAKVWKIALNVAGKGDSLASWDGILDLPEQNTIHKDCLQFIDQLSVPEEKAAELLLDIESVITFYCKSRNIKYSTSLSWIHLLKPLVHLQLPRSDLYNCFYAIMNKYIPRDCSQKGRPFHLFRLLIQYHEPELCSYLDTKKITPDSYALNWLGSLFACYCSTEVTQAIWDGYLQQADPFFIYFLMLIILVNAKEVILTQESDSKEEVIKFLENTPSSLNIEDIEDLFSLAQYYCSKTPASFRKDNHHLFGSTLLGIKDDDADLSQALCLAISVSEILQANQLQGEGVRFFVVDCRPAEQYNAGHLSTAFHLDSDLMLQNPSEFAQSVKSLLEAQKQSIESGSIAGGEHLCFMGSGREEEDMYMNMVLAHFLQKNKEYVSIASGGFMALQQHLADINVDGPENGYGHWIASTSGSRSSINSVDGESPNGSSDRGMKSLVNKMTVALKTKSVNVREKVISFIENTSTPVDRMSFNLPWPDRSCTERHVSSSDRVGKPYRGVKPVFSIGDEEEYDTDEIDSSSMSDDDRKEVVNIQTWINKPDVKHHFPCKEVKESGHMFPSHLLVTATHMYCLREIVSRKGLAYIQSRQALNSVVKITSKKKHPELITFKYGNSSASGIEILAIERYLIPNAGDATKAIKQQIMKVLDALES

For the compound `C=CC(=O)Nc1cc(F)c(N2CCN(C(=O)OC(C)(C)C)CC2)c(F)c1` [compound 38], in experiment [1], the “isoTOP-ABPP ratio Q9NUY8_C283” value came to 1.0. For the same compound, the “isoTOP-ABPP ratio P10599_C32” value in experiment [2] amounted to 2.1. In experiment [3], the “isoTOP-ABPP ratio Q13428_C38” value was determined as 1.1 and the “isoTOP-ABPP ratio Q13428_C1298” value came out at 2.0. Further, in experiment [4], the “isoTOP-ABPP ratio P35611_C68” value was 1.4. In experiment [5], the “isoTOP-ABPP ratio P12268_C140” value is reported as 1.2 and the “isoTOP-ABPP ratio P12268_C331” value stood at 1.3. Further, in experiment [6], the “isoTOP-ABPP ratio Q8TAQ2_C145” value was 1.3.

Consider `Cc1ccc(C=C(C#N)C(=O)NCCN2CCOCC2)cc1` [compound 41], for which the “isoTOP-ABPP ratio Q9NUY8_C283” value in experiment [1] was determined as 0.7. For the same compound, the “isoTOP-ABPP ratio P10599_C32” value in experiment [2] is 0.4. In experiment [3], the “isoTOP-ABPP ratio Q13428_C38” value amounted to 1.1 and the “isoTOP-ABPP ratio Q13428_C1298” value is given as 1.0. In addition, the “isoTOP-ABPP ratio P35611_C68” value in experiment [4] is recorded as 0.9. Further, in experiment [5], the “isoTOP-ABPP ratio P12268_C140” value amounted to 0.7 and the “isoTOP-ABPP ratio P12268_C331” value was found to be 0.8. In experiment [6], the “isoTOP-ABPP ratio Q8TAQ2_C145” value is given as 1.2.

As for `CC1CCc2ccccc2N1C(=O)CCl` (stereo not drawn) [compound 45], the “isoTOP-ABPP ratio Q9NUY8_C283” value in experiment [1] amounted to 2.7. In addition, the “isoTOP-ABPP ratio P10599_C32” value in experiment [2] amounted to 5.7. For the same compound, in experiment [3], the “isoTOP-ABPP ratio Q13428_C38” value is 2.8 and the “isoTOP-ABPP ratio Q13428_C1298” value was 4.7. The “isoTOP-ABPP ratio P35611_C68” value in experiment [4] is reported as 20.0. For the same compound, in experiment [5], the “isoTOP-ABPP ratio P12268_C140” value is recorded as 1.9 and the “isoTOP-ABPP ratio P12268_C331” value amounted to 4.1. For the same compound, the “isoTOP-ABPP ratio Q8TAQ2_C145” value in experiment [6] is given as 2.9.

Take `O=C(CCl)Nc1cccc2ncccc12` [compound 51]: in experiment [1], the “isoTOP-ABPP ratio Q9NUY8_C283” value was determined as 2.1. Also, in experiment [2], the “isoTOP-ABPP ratio P10599_C32” value is on record as 13.9. In addition, the “isoTOP-ABPP ratio Q13428_C38” value in experiment [3] was determined as 1.1. Also, in experiment [4], the “isoTOP-ABPP ratio P35611_C68” value is 1.0. In experiment [5], the “isoTOP-ABPP ratio P12268_C140” value amounted to 1.0. Moreover, the “isoTOP-ABPP ratio Q8TAQ2_C145” value in experiment [6] stood at 1.2.
